In patent US7803816B2, “MCH receptor antagonists” (Hoffmann-La Roche Inc., priority 2005, dated 2010):
Where a name gives a salt, the structure may show the parent alone.

Molecular target: T1, recombinant human MCHR1-receptors (Homo sapiens, UniProt Q99705)
T1 construct: expressed in transfected cells
Experiment: MCHR filter binding assay (competition binding)
Conditions: membranes from CHO-K1 cells expressing human MCHR1; 0.2 nM [Phe13,[125I]Tyr19]-MCH; read-out: IC50 (nM), in vitro activity (binding assay)
Procedure: MCHR Filter Binding Assay
Competition binding assays were performed using membranes from CHO-K1 cells stably expressing the recombinant human MCHR1-receptors. Binding reactions (90 μl, final volume) were carried out at rt by incubating 2.8 μg membranes with 0.2 nM [Phe^13,[^125I]Tyr^19]-MCH (PerkinElmer) in the absence or presence of various concentrations of competing ligands in binding buffer (50 mM HEPES, 2.5 mM CaCl2, 0.05 mM BSA, 1 mM phenanthroline, 0.03 mM Triton X-100). [Phe^13,[^125I]Tyr^19]-MCH was added 15 min following the addition of unlabeled competing ligands, and the reactions incubated for a 1 h period. The reactions were terminated by rapid filtration over pretreated 96-well filter plates (Millipore; MultiScreen 0.65 μm GFB filter plates). Filter Plates were treated for 12 h at 4° C. with a 0.5% polyvinylpyrrolidone solution containing 1% BSA and 0.1% Tween 20, and then washed with an ice-cold solution of 10 mM Tris, pH 7.5 (5×200 μl). The plates were drained following a 5 min incubation with binding buffer (200 μl) at rt. Following termination of the binding reactions, the filters were washed with ice-cold binding buffer (4×200 μl). The filter plates were air dried for 30 min, scintillation cocktail (60 μl) added to each well and radioactivity bound to the plates was determined using a Micro-beta plate reader (Wallace/PerkinElmer).

T1 sequence (Q99705 whole entry): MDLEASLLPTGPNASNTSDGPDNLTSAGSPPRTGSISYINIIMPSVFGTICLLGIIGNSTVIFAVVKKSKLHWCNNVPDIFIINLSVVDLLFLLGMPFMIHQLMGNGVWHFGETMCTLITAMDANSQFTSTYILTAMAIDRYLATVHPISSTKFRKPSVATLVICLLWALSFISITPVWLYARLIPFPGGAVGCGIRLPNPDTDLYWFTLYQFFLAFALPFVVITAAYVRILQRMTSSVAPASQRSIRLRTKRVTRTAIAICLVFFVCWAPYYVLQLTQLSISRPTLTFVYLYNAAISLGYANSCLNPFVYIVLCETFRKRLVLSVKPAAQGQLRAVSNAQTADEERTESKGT

| Compound | IC50 |
| --- | --- |
| CO[C@@H]1CN(C[C@@H]2Cc3ccc(Br)cc3C2)CC[C@H]1n1c(C(C)(C)O)nc2cc(C)ccc21 [Example 115, 2-{1-[(3R,4R)-1-((R)-5-Bromo-indan-2-ylmethyl)-3-methoxy-piperidin-4-yl]-5-methyl-1H-benzoimidazol-2-yl}-propan-2-ol] | 20 to 200 nM |
| CCOc1nc2cc(C)ccc2n1C1CCN(CC2Cc3ccc(NC(=O)C(C)C)cc3C2)CC1 (stereo in doubt) [Example 4, N-{(S)-2-[4-(2-Ethoxy-5-methyl-benzoimidazol-1-yl)-piperidin-1-ylmethyl]-indan-5-yl}-isobutyramide] | 20 to 200 nM |
| CO[C@H]1CN(CC2Cc3cc(Cl)c(Cl)cc3C2)CC[C@@H]1n1c(C(C)C)nc2cc(C)ccc21 [Example 95, 1-[(3S,4S)-1-(5,6-Dichloro-indan-2-ylmethyl)-3-methoxy-piperidin-4-yl]-2-isopropyl-5-methyl-1H-benzoimidazole; dihydrochloride] | 200 to 5000 nM |
| Cc1cc2nc(C)n(C3CCN(C[C@@H]4Cc5ccc(NC(=O)C(C)C)cc5C4)CC3)c2cn1 [Example 10, N-{(R)-2-[4-(2,6-Dimethyl-imidazo[4,5-c]pyridin-3-yl)-piperidin-1-ylmethyl]-indan-5-yl}-isobutyramide; compound with trifluoro-acetic acid] | 200 to 5000 nM |
| Cc1ccc2c(c1)nc(C)n2[C@@H]1CCN(C[C@@H]2Cc3ccc(NC(=O)C(C)C)cc3C2)C[C@H]1OS(C)(=O)=O [Example 7, Methanesulfonic acid 4-(2,5-dimethyl-benzoimidazol-1-yl)-1-((R)-5-isobutyrylamino-indan-2-ylmethyl)-piperidin-3-yl ester] | 20 to 200 nM |
| CO[C@@H]1CN(C[C@H]2Cc3ccc(C#N)cc3C2)CC[C@H]1n1c(C)nc2cc(C)ccc21 [Example 85, (S)-2-[(3R,4R)-4-(2,5-Dimethyl-benzoimidazol-1-yl)-3-methoxy-piperidin-1-ylmethyl]-indan-5-carbonitrile] | < 20 nM |
| Cc1ccc2c(c1)nc(C)n2[C@H]1CCN(C[C@@H]2Cc3ccc(NC(=O)C(C)C)cc3C2)C[C@@H]1OCC(C)(C)O [Example 15, N-{(R)-2-[(3S,4S)-4-(2,5-Dimethyl-benzoimidazol-1-yl)-3-(2-hydroxy-2-methyl-propoxy)-piperidin-1-ylmethyl]-indan-5-yl}-isobutyramide; dihydrochloride] | < 20 nM |
| CO[C@@H]1CN(CC2Cc3ccc(C)cc3C2)CC[C@H]1n1c(C(C)(C)O)nc2cc(C)ccc21 (stereo partly drawn) [Example 117, 2-{1-[(3R,4R)-3-Methoxy-1-(5-methyl-indan-2-ylmethyl)-piperidin-4-yl]-5-methyl-1H-benzoimidazol-2-yl}-propan-2-ol] | 20 to 200 nM |
| CCCC(=O)Nc1ccc2c(c1)C[C@@H](CN1CCC(n3c(C)nc4cc(C)ccc43)CC1)C2 [Example 44, -{(S)-2-[4-(2,5-Dimethyl-benzoimidazol-1-yl)-piperidin-1-ylmethyl]-indan-5-yl}-butyramide] | 20 to 200 nM |
| CO[C@@H]1CN(C[C@@H]2Cc3ccc(Cl)cc3C2)CC[C@H]1n1c(C(C)(C)O)nc2cc(C)ccc21 [Example 113, 2-{1-[(3R,4R)-1-((R)-5-Chloro-indan-2-ylmethyl)-3-methoxy-piperidin-4-yl]-5-methyl-1H-benzoimidazol-2-yl}-propan-2-ol] | < 20 nM |
| CO[C@@H]1CN(C[C@@H]2Cc3ccc(Br)cc3C2)CC[C@H]1n1c(C(C)C)nc2cc(C)ccc21 [Example 89, 1-[(3R,4R)-1-((R)-5-Bromo-indan-2-ylmethyl)-3-methoxy-piperidin-4-yl]-2-isopropyl-5-methyl-1H-benzoimidazole] | 20 to 200 nM |
| CO[C@@H]1CN(C[C@@H]2Cc3ccc(NC(=O)C4CC4)cc3C2)CC[C@H]1n1c(C2CC2)nc2cc(C)ccc21 [Example 80, Cyclopropanecarboxylic acid {(R)-2-[(3R,4R)-4-(2-cyclopropyl-5-methyl-benzoimidazol-1-yl)-3-methoxy-piperidin-1-ylmethyl]-indan-5-yl}-amide] | 200 to 5000 nM |
| N-(2-{2-[4-(2,5-Dimethyl-benzoimidazol-1-yl)-piperidin-1-yl]-ethyl}-indan-5-yl)-isobutyramide [Example 58] | 200 to 5000 nM |
| CCC(=O)Nc1ccc2c(c1)CC(CN1CC[C@@H](n3c(C)nc4cc(C)ccc43)[C@H](O)C1)C2 (stereo in doubt) [Example 5, N-{(S)-2-[(3R,4R)-4-(2,5-Dimethyl-benzoimidazol-1-yl)-3-hydroxy-piperidin-1-ylmethyl]-indan-5-yl}-propionamide] | 20 to 200 nM |
| Cc1cc2nc(C(C)(C)O)n(C3CCN(C[C@H]4Cc5ccc(Br)cc5C4)CC3)c2cc1F [Example 124, 2-{1-[1-((S)-5-Bromo-indan-2-ylmethyl)-piperidin-4-yl]-6-fluoro-5-methyl-1H-benzoimidazol-2-yl}-propan-2-ol] | < 20 nM |
| Cc1ccc2c(c1)nc(C)n2[C@@H]1CCN(C[C@H]2Cc3ccc(NC(=O)C4CC4)cc3C2)C[C@H]1O [Example 88, Cyclopropanecarboxylic acid {(S)-2-[(3R,4R)-4-(2,5-dimethyl-benzoimidazol-1-yl)-3-hydroxy-piperidin-1-ylmethyl]-indan-5-yl}-amide] | 20 to 200 nM |
| CCC(=O)Nc1ccc2c(c1)C[C@H](CN1CC[C@H](n3c(C4CC4)nc4cc(C)ccc43)[C@@H](OC)C1)C2 [Example 60, N-{(R)-2-[(3S,4S)-4-(2-Cyclopropyl-5-methyl-benzoimidazol-1-yl)-3-methoxy-piperidin-1-ylmethyl]-indan-5-yl}-propionamide] | < 20 nM |
| CO[C@@H]1CN(CC2Cc3ccccc3C2)CC[C@H]1n1c(C(C)C)nc2cc(C)ccc21 [Example 24, 1-((3R,4R)-1-Indan-2-ylmethyl-3-methoxy-piperidin-4-yl)-2-isopropyl-5-methyl-1H-benzoimidazole] | 20 to 200 nM |
| CO[C@@H]1CN(C[C@@H]2Cc3ccc(F)cc3C2)CC[C@H]1n1c(C(C)(C)O)nc2cc(C)ccc21 [Example 109, 2-{1-[(3R,4R)-1-((R)-5-Fluoro-indan-2-ylmethyl)-3-methoxy-piperidin-4-yl]-5-methyl-1H-benzoimidazol-2-yl}-propan-2-ol] | 20 to 200 nM |
| CO[C@@H]1CN(C[C@H]2Cc3ccc(Br)cc3C2)CC[C@H]1n1c(C)nc2cc(C)ccc21 [Example 1, 1-[(3R,4R)-1-((S)-5-Bromo-indan-2-ylmethyl)-3-methoxy-piperidin-4-yl]-2,5-dimethyl-1H-benzoimidazole] | < 20 nM |
| COC1CN(C[C@H]2Cc3ccc(C#N)cc3C2)CC[C@H]1n1c(C(C)(C)O)nc2cc(C)ccc21 (stereo in doubt) [Example 120, (S)-2-{(3R,4R)-4-[2-(1-Hydroxy-1-methyl-ethyl)-5-methyl-benzoimidazol-1-yl]-3-methoxy-piperidin-1-ylmethyl}-indan-5-carbonitrile] | < 20 nM |
| CO[C@@H]1CN(C[C@@H]2Cc3ccc(NC(=O)C(C)C)cc3C2)CC[C@H]1n1c(C)nc2cc(C)ccc21 [Example 47, N-{(R)-2-[(3R,4R)-4-(2,5-Dimethyl-benzoimidazol-1-yl)-3-methoxy-piperidin-1-ylmethyl]-indan-5-yl}-isobutyramide] | 20 to 200 nM |
| Cc1ccc2c(c1)ncn2C1CCN(CC2Cc3ccc(NC(=O)C(C)C)cc3C2)CC1 (stereo not drawn) [Example 78, N-{2-[4-(5-Methyl-benzoimidazol-1-yl)-piperidin-1-ylmethyl]-indan-5-yl}-isobutyramide] | 20 to 200 nM |

Same assay, conditions: membranes from CHO-K1 cells expressing human MCHR1; 0.2 nM [Phe13,[125I]Tyr19]-MCH; read-out: IC50 (nM), selected in vitro MCH-R binding data

| Compound | IC50 |
| --- | --- |
| CO[C@@H]1CN(C[C@H]2Cc3ccc(Br)cc3C2)CC[C@H]1n1c(C)nc2cc(C)ccc21 [Example 1, 1-[(3R,4R)-1-((S)-5-Bromo-indan-2-ylmethyl)-3-methoxy-piperidin-4-yl]-2,5-dimethyl-1H-benzoimidazole] | 20 nM |
